Results published in patent publication US12059422B2 (MEI Pharma, Inc., priority 2011, dated 2024).

Tests used:
PI3Kβ = target: T1, PI3Kβ (Homo sapiens, UniProt P42338); assay: ELISA assay for PI3Kβ: in-cell ELISA, phosphorylation of AKT (Ser473) in PC-3 cells; type: cell-based; settings: for IC50: cellular, pAKT (Ser473), PC-3 cells, LPA stimulation, read-out: IC50 p110β; for α/β ratio: ratio of cellular IC50 values, Table 2
T1 construct: endogenous in cells; host or cells: PC-3 (ATCC #CRL-1435)
T1 sequence (P42338 whole entry): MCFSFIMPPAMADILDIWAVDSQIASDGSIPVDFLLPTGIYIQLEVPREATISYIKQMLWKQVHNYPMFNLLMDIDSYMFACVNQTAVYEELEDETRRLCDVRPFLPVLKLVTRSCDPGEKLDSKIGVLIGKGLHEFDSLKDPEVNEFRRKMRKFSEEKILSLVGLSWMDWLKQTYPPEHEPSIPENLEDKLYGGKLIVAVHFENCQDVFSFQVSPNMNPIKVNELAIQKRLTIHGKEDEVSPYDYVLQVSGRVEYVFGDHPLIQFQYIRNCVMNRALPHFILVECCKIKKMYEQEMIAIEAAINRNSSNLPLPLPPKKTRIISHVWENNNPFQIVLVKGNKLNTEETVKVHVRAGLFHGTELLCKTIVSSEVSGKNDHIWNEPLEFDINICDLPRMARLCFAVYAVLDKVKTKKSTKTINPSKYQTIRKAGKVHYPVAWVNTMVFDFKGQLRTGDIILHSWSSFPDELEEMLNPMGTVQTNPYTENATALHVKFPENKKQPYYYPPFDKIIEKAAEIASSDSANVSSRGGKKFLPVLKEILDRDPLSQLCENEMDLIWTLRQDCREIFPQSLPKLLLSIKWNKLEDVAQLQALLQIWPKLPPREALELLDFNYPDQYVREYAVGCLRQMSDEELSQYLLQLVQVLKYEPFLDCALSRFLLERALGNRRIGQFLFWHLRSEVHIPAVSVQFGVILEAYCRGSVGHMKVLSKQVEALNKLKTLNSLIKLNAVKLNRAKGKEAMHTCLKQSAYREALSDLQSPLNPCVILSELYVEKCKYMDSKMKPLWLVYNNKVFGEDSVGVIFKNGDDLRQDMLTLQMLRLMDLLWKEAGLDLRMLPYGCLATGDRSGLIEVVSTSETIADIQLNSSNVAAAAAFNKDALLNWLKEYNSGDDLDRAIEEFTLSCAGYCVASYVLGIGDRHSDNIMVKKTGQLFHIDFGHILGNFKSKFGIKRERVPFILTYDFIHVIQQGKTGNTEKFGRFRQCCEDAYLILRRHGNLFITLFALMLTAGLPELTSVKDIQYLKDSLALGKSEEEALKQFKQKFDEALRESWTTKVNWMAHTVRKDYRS
T1 sequence (P27986 whole entry partner): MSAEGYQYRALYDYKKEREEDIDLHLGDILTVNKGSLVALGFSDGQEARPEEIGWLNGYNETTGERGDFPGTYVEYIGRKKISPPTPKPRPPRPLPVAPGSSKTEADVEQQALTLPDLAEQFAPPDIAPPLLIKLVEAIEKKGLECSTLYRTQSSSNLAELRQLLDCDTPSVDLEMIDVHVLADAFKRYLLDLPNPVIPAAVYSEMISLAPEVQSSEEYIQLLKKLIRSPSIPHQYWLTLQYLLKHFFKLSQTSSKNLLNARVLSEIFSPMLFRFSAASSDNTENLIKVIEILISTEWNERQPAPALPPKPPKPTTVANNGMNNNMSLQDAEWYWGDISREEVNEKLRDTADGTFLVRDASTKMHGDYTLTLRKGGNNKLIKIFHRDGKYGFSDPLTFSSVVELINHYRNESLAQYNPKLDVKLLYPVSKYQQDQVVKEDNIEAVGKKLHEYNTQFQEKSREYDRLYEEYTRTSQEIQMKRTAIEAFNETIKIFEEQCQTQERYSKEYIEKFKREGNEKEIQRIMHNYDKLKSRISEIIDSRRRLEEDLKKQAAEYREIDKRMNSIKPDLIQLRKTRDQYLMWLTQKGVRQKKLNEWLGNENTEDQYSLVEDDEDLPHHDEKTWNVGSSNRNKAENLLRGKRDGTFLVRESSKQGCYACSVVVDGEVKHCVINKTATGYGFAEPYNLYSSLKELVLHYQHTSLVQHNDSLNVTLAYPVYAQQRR
Procedure: Cellular PI3Kβ activity was determined by measuring the phosphorylation of AKT (Ser473) using an in-cell ELISA assay. PC-3 (prostate carcinoma) cells were obtained from ATCC (ATCC #CRL-1435). Growth medium was DMEM (CellGro #CV-10-013-CV) supplemented with 10% fetal bovine serum, 100 IU/mL penicillin, 100 μg/mL streptomycin, and 1×MEM non-essential amino acids. Phosphate buffered saline (PBS) contained 2.7 M NaCl, 54 mM KCl, 86 mM […] (dibasic, anhydrous), 28 mM […] (monobasic, anhydrous), pH 7.2, 10× stimulation mixture contained 50 μM LPA (Cayman #62215) diluted in serum-free DMEM medium (CellGro #CV-10-013-CV). Compounds for testing were dissolved and serially diluted in 100% DMSO (total of 10 concentrations), then diluted in serum-free DMEM to 2× final assay concentration. 2× fixative solution contained 8% formaldehyde (Amresco #M134) diluted in PBS. Permeabilization solution contained PBS supplemented with 0.1% Triton X-100. Blocking buffer was obtained from LiCor (LiCor #927-40000). Wash buffer contained PBS supplemented with 0.1% Tween-20. Primary antibody solution was rabbit anti-pAKT^S473 monoclonal antibody (Cell Signaling #4060) and mouse anti-total S6 (Santa Cruz #74459) diluted 1:500 and 1:2000, respectively, in blocking buffer. Secondary antibody solution was IRDye 800CW-conjugated goat anti-rabbit IgG (LiCor #926-32211) and IRDye 680LT-conjugated goat anti-mouse IgG (LiCor #926-68020) diluted 1:2000 and 1:1000, respectively, in blocking buffer.
PC-3 cells were subcultured in growth medium and seeded into flat, clear bottom, 96-well plates (Corning #3904) at 16000 cells/well, then incubated overnight in a 37° C., 5% CO2 incubator. Growth medium in plates was replaced with 100 μL/well serum-free DMEM and incubated overnight in a 37° C., 5% CO2 incubator. 50 μL/well of fresh serum-free DMEM was added to plates. Compound treatment was performed by adding 50 μL/well of 2× compound mixture to plates and incubating for 2 hrs at 37° C., 5% CO2, after which 11 μL/well of 10× stimulation mixture was added and plates were incubated for 10 min at 37° C., 5% CO2. Fixation was performed by adding 110 μL/well of 2× fixative solution to plates and incubating for 20 min at room temperature. Permeabilization was performed by replacing fixation solution with 150 μL/well permeabilization solution and incubating for 10 min at room temperature. Permeabilization was repeated (for a total of 2 times). Permeabilization solution was replaced with 100 μL/well blocking buffer and plates were incubated for 1 hr at room temperature, after which 100 μL/well of primary antibody solution was added and plates were incubated overnight at 4° C. Plates were washed with wash buffer, after which 100 μL/well of secondary antibody solution was added to the plates and incubated in the dark for 1 hr at room temperature. Plates were washed with wash buffer, followed by awash with PBS. After completely removing PBS, plates were scanned on the Licor Odyssey Imager. Images quantified using Licor Odyssey application software. IC50 values were determined by curve fitting using a Collaborative Drug Discovery database (www.collaborativedrug.com).

PI3K beta = target: T2, PI3K beta (Homo sapiens, UniProt P42338); assay: Luciferase-based luminescence assay (ADP Glo), PI3K beta enzymatic activity; type: biochemical; settings: for IC50: inhibition of enzymatic activity, ADP Glo, 25 μM ATP, read-out: IC50 p110β; for α/β ratio: ratio of enzymatic IC50 values, Table 1
T2 construct: purchased Millipore, Billerica, MA, USA
T2 sequence (P42338 whole entry, species assumed): as the sequence (P42338 whole entry) above
T2 sequence (P27986 whole entry partner, species assumed): as the sequence (P27986 whole entry partner) above
Procedure, shortened: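 Final enzyme 4.8 nM PI3K beta or 7.6 nM PI3K gamma, with 50 μM PIP2 and 25 μM ATP, 1 h in HEPES pH 7.5 buffer with MgCl2, EGTA, NaCl, CHAPS and DTT. ADP formed measured by ADP-Glo luminescence; IC50 from 10-point curve fits.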

SMILES	IC50 (PI3Kβ)	α/β ratio (PI3Kβ)	IC50 (PI3K beta)	α/β ratio (PI3K beta)
CCN1CCC(c2ccccc2CC(C)(C)Nc2nc(N3CCOCC3)nc(-n3c(C(F)F)nc4ccccc43)n2)CC1 [Compound A70, 4-(2-(difluoromethyl)-1H-benzo[d]imidazol-1-yl)-N-(1-(2-(1-ethylpiperidin-4-yl)phenyl)-2-methylpropan-2-yl)-6-morpholino-1,3,5-triazin-2-amine]	≤ 100 nM	A’	> 500 nM	C’
CC(C)N1CCC(c2ccccc2CC(C)(C)Nc2nc(N3CCOCC3)nc(-n3c(C(F)F)nc4ccccc43)n2)CC1 [Compound A71, 4-(2-(difluoromethyl)-1H-benzo[d]imidazol-1-yl)-N-(1-(2-(1-isopropylpiperidin-4-yl)phenyl)-2-methylpropan-2-yl)-6-morpholino-1,3,5-triazin-2-amine]	≤ 100 nM	A’	> 500 nM	D’
CC(=O)N1CCC(c2ccccc2CC(C)(C)Nc2nc(N3CCOCC3)nc(-n3c(C(F)F)nc4ccccc43)n2)CC1 [Compound A72, 4-(2-(difluoromethyl)-1H-benzo[d]imidazol-1-yl)-N-(2-methyl-1-(2-(1-acetylpiperidin-4-yl)phenyl)propan-2-yl)-6-morpholino-1,3,5-triazin-2-amine]	≤ 100 nM	A’	≤ 100 nM	A’
CC(C)(Cc1ccccc1C1CCN(S(C)(=O)=O)CC1)Nc1nc(N2CCOCC2)nc(-n2c(C(F)F)nc3ccccc32)n1 [Compound A73, 4-(2-(difluoromethyl)-1H-benzo[d]imidazol-1-yl)-N-(2-methyl-1-(2-(1-(methylsulfonyl)piperidin-4-yl)phenyl)propan-2-yl)-6-morpholino-1,3,5-triazin-2-amine]	≤ 100 nM	A’	≤ 100 nM	A’
CC(C)(Cc1ccccc1C1CCNC1)Nc1nc(N2CCOCC2)nc(-n2c(C(F)F)nc3ccccc32)n1 (stereo not drawn) [Compound A74, 4-(2-(difluoromethyl)-1H-benzo[d]imidazol-1-yl)-N-(2-methyl-1-(2-(pyrrolidin-3-yl)phenyl)propan-2-yl)-6-morpholino-1,3,5-triazin-2-amine]	≤ 100 nM	A’	> 500 nM	D’
CN(C)CCCc1ccccc1CC(C)(C)Nc1nc(N2CCOCC2)nc(-n2c(C(F)F)nc3ccccc32)n1 [Compound A76, 4-(2-(difluoromethyl)-1H-benzo[d]imidazol-1-yl)-N-(1-(2-(3-(dimethylamino)propyl)phenyl)-2-methylpropan-2-yl)-6-morpholino-1,3,5-triazin-2-amine]	≤ 100 nM	A’	200 to 500 nM	C’
